The IC50 is the concentration needed to halve the response being measured.

Holding throughout (format): biochemical
The target of assay [1] is T1, NDH-2 (type II NADH:quinone oxidoreductase) (Caldalkalibacillus thermarum, UniProt F5L3B8, I379E).
T1 construct: gene CathTA2_0279
Description: NADH:menadione oxidoreduction assay, […] menadione, […] NADH.

Assay [2] addresses T2, NDH-2 (type II NADH:quinone oxidoreductase) (Caldalkalibacillus thermarum, UniProt F5L3B8).
T2 construct: gene CathTA2_0279
Description: co-crystal structure at […] Å; IC50 in NADH:menadione oxidoreduction assay ([…] menadione) with purified enzyme.

Assay [3] deals with T2, NDH-2 (type II NADH:quinone oxidoreductase). As to the kind of experiment: NADH:menadione oxidoreduction turnover of purified enzyme ([…] s^−[…] at […] MD).

T2 sequence (F5L3B8 entry or part of it): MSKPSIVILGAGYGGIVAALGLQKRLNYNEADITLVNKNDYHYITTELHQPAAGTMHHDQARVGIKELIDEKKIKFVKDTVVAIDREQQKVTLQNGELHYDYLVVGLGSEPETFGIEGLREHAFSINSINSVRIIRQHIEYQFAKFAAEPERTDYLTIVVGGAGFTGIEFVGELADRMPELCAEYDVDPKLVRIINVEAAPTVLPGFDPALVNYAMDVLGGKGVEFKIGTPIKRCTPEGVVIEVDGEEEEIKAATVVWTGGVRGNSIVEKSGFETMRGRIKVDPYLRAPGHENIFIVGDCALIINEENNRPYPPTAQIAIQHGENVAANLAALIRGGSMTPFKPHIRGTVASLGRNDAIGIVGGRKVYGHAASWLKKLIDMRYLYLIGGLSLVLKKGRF
T1 sequence (F5L3B8 entry or part of it I379E): as the sequence (F5L3B8 entry or part of it) above

Turning to `CCCCCCCc1cc(O)c2ccccc2[n+]1[O-]` [compound 1, 2-heptyl-4-hydroxyquinoline-N-oxide], the IC50 in assay [1] is 54.3 ± 1.2 µM; in assay [2], 7.3 ± 1.2 µM.

As to `CC1=CC(=O)c2ccccc2C1=O` [menadione], the “NADH:menadione oxidoreduction turnover of purified enzyme (959.3 s^-1 at 400 μM)” value in assay [3] is 959.3 s⁻¹.

The values are drawn from article PMC6167311, “Structure of the NDH-2 – HQNO inhibited complex provides molecular insight into quinone-binding site inhibitors” (Biochimica et Biophysica Acta, 2018).
